Data published in patent US8158789B2, “Arginine derivatives with NP-I antagonistic activity” (Ark Therapeutics Group Ltd., priority 2006, dated 2012).

Legend:
A549 cells [1] = experiment: Cell migration (chemotaxis transwell); type: cell-based, Human; conditions: concentrations from 10-100 μM
Description: (§1) Porcine aortic endothelial cells expressing neuropilin-1 (PAE/NP-1) were cultured in Ham's F12 medium containing 10% fetal bovine serum (FBS) and 25 μg/ml hygromycin B. PAE cells expressing KDR (PAE/KDR) were grown in Ham's F12 medium containing 10% FBS and 250 μg/ml […] G418. Human carcinoma cell lines (DU145, A549 and ACHN) were grown in RPMI 1640 medium containing 10% FBS and L-glutamine.
(§2) Cell migration was measured in chemotaxis 24-transwell plates with collagen 1-coated inserts. The various concentrations of serum in RPMI 1640/0.1% BSA were placed in the bottom wells of the plates, while top inserts incorporating PET (polyethylene terephthalate) track-etched membranes with 8 micron pores (Becton Dickinson Biosciences) were placed over the bottom wells. Cells were trypsinised, washed and resuspended in RPMI 1640/0.1% BSA. 1.5×10^6 cells with or without peptide or peptidomimetic treatment as indicated were loaded into each top inserts, and the chemotaxis trans-well plates were incubated at 37° C. for 4 h. After the incubation, non-migrated cells on the top side of the trans-well membranes were removed, and migrated cells on the under side of the trans-well membranes were stained with the REASTAIN Quick-Diff kit (REAGENA). The stained cells from each well were counted in 4 fields at ×100 magnification using an eyepiece indexed graticule (100 grids).

ACHN cells = experiment: Cell migration (chemotaxis transwell); type: cell-based, Human; conditions: concentrations from 10-100 μM
Description: as §1, §2

neuropilin-1 (NP-1) = biological target: T1, neuropilin-1 (NP-1) (Homo sapiens, UniProt O14786); experiment: 125I-VEGF-A165 binding; conditions: assay not given; 125I-VEGF-A165 binding is the only concentration-response binding method described
T1 construct: expressed in transfected cells; host or cells: porcine aortic endothelial cells (PAE/NP-1), hygromycin B selection
Description: as §1
Confluent cells in 24-well plates were washed twice with phosphate-buffered saline (PBS). At 4° C. various concentrations of peptides or peptidomimetics diluted in binding medium (Dulbecco's modified Eagle's medium, 25 mM HEPES pH 7.3 containing 0.1% BSA) were added, followed by addition of 0.1 nM of ^125I-VEGF-A165 (1200-1800 Ci/mmol, GE Healthcare). After 2 h of incubation at 4° C., the medium was aspirated and washed 4 times with cold PBS. The cells were lysed with 0.25 M NaOH, 0.5% SDS solution, and the bound radioactivity of the lysates was measured in a γ counter. Non-specific binding was determined in the presence of 100-fold excess unlabelled VEGF-A165.

DU145 cancer cells = experiment: Cell-matrix adhesion (Innocyte ECM cell adhesion assay); type: cell-based, Human; conditions: concentrations from 10-100 μM
Description: as §1
Cell adhesion to extracellular matrix proteins (basement membrane protein complex, laminin I, collagen IV, fibronectin or vitronectin) was measured by the Innocyte ECM cell adhesion assay (Calbiochem). Cells were detached with a non-enzyme cell dissociation solution (Sigma), washed and resuspended in RPMI 1640 medium. Cells with or without peptidomimetic treatment were seeded at 3×10^4 cells per matrix-coated well of 96-well plates. After 1.5 h incubation, cells were washed with PBS. The attached cells were labelled with the green fluorescent dye calcein-AM and measured using a fluorescence plate reader at an excitation wavelength of 485 nm and an emission wavelength of 520 nm.

A549 cells [2] = experiment: Cell viability (XTT); type: cell-based, Human; conditions: concentration of 100 μM
Description: Human carcinoma cell lines (DU145, A549 and ACHN) were grown in RPMI 1640 medium containing 10% FBS and L-glutamine. Cell Viability Cell viability was determined by measurement of conversion of the tetrazolium salt XTT to form formazon dye. Carcinoma cells were seeded at a density of 4×10^3 cells per well in 96-well plates in the absence or presence of NP-1 peptide or peptidomimetic antagonists. After 44 h incubation, XTT labelling reagent mixture (Roche) was added to the cultures and they were incubated for a further 4 h. The formazon production was then measured at A490 nm with a reference wavelength at 595 nm.

T1 sequence (O14786 22-923): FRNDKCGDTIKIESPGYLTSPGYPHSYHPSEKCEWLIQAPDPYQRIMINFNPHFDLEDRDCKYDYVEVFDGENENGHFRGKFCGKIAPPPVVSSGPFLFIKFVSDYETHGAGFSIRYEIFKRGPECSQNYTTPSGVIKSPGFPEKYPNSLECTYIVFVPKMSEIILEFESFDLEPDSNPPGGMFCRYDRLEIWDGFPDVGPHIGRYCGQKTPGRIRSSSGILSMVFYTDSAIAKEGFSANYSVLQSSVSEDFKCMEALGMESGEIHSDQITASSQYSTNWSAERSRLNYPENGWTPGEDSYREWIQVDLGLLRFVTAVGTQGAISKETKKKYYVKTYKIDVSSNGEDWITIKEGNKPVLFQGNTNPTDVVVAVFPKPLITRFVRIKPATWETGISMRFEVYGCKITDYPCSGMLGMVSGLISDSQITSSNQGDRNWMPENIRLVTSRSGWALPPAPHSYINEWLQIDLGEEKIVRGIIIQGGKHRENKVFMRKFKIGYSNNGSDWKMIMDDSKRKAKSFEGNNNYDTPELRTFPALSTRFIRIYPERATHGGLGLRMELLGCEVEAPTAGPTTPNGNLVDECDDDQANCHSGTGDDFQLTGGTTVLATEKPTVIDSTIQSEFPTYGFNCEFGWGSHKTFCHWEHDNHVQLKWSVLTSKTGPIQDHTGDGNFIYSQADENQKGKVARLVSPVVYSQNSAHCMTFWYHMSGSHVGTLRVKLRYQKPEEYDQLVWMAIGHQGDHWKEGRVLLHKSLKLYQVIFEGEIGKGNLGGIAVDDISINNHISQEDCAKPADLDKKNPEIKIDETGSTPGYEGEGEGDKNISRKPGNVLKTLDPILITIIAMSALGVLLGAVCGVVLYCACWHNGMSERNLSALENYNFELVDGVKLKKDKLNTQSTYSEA

SMILES | migration of A549 cells (A549 cells [1]) | migration of ACHN cells (ACHN cells) | IC50 (neuropilin-1 (NP-1)) [µM] | inhibiting the adhesion of DU145 cancer cells to extracellular matrix proteins (DU145 cancer cells) | viability of A549 cells (A549 cells [2])
N=C(N)NCCC[C@H](NC(=O)c1sccc1NS(=O)(=O)c1ccc(N)cc1)C(=O)O [EG00144, (S)-2-{[3-(4-Amino-benzenesulfonylamino)-thiophene-2-carbonyl]-amino}-5-guanidino-pentanoic acid] | decreased migration | decreased migration | < 20 | effective | –
N=C(N)NCCC[C@H](NC(=O)c1sccc1NS(=O)(=O)c1cccc2nsnc12)C(=O)O [EG00229, (S)-2-{[3-(Benzo[1,2,5]thiadiazole-4-sulfonylamino)-thiophene-2-carbonyl]-amino}-5-guanidino-pentanoic acid] | – | – | < 20 | – | reduced the viability
Cc1noc(C)c1-c1cccc(S(=O)(=O)Nc2ccsc2C(=O)N[C@@H](CCCNC(=N)N)C(=O)O)c1 [EG00350, (S)-2-({3-[3-(3,5-Dimethyl-isoxazol-4-yl)-benzenesulfonylamino]-thiophene-2-carbonyl}-amino)-5-guanidino-pentanoic acid] | – | – | < 20 | – | –
